This passage reports Km, kcat and kcat/Km results from publication PMC5356311, “Experimental recreation of the evolution of lignin-degrading enzymes from the Jurassic to date” (Biotechnology for Biofuels, 2017).

Like-named read-outs stand apart in the source and are kept apart here.

Data set [1] concerns CaCD. The following applies: read-out: CaCD; 0.4 mM H2O2, 0.1 M tartrate, pH 3.5, 25 °C; low efficiency site (heme channel).
The next data set has as its system CaPo-tris. The following applies: saturating H2O2, 0.1 M tartrate, 25 °C; low efficiency site (heme channel).
For the next data set, the system named is CaPo-bis. The following applies: saturating H2O2, 0.1 M tartrate, 25 °C; low efficiency site (heme channel).
Data set [2] has as its system ALiP. The following applies: read-out: ALiP; 0.2 mM H2O2, 0.1 M tartrate, pH 3.5, 25 °C; high efficiency site (exposed Trp).
Data set [3] relates to AVP. The data set is described as follows: steady-state kinetics, spectrophotometric ([…] nm). In kind it is biochemical, ancestral sequence (Polyporales, reconstructed). The following applies: 0.4 mM H2O2, 0.1 M tartrate, pH 3.5, 25 °C; biphasic kinetics, high efficiency site (exposed Trp).
Data set [4] relates to ALiP. The data set is described as follows: steady-state kinetics, spectrophotometric ([…] nm). The following applies: 0.2 mM H2O2, 0.1 M tartrate, pH 3.0, 25 °C; high efficiency site (exposed Trp). In kind it is biochemical, ancestral sequence (Polyporales, reconstructed).
Data set [5] concerns AVP. As to the kind of experiment: steady-state kinetics, spectrophotometric ([…] nm). In kind it is biochemical, ancestral sequence (Polyporales, reconstructed). As to conditions: 0.4 mM H2O2, 0.1 M tartrate, pH 3.0, 25 °C; biphasic kinetics, high efficiency site (exposed Trp).
A further data set deals with CaPo. The data set is described as follows: steady-state kinetics, spectrophotometric ([…] nm). It is filed as biochemical, ancestral sequence (Polyporales, reconstructed). The following applies: 0.4 mM H2O2, 0.1 M tartrate, pH 2, 25 °C; low efficiency site (heme channel).
Data set [6] concerns CaCD. The data set is described as follows: steady-state kinetics, spectrophotometric ([…] nm). It is filed as biochemical, ancestral sequence (Polyporales, reconstructed). The following applies: 0.4 mM H2O2, 0.1 M tartrate, pH 3.0, 25 °C; low efficiency site (heme channel).
The test system of data set [7] is ALiP. As to the kind of experiment: steady-state kinetics, spectrophotometric ([…] nm). It is filed as biochemical, ancestral sequence (Polyporales, reconstructed). As to conditions: 0.2 mM H2O2, 0.1 M tartrate, pH 3, 25 °C; exposed Trp site.
The test system of data set [8] is AVP. As to the kind of experiment: steady-state kinetics, spectrophotometric ([…] nm). It is filed as biochemical, ancestral sequence (Polyporales, reconstructed). The following applies: 0.4 mM H2O2, 0.1 M tartrate, pH 3, 25 °C; exposed Trp site.
Data set [9] has as its system AVP. As to the kind of experiment: steady-state kinetics, spectrophotometric ([…] nm). In kind it is biochemical, ancestral sequence (Polyporales, reconstructed). The following applies: 0.4 mM H2O2, 0.1 M tartrate, pH 3.5, 25 °C; exposed Trp site.
Data set [10] has as its system ALiP. The data set is described as follows: steady-state kinetics, spectrophotometric ([…] nm). It is filed as biochemical, ancestral sequence (Polyporales, reconstructed). The following applies: 0.2 mM H2O2, 0.1 M tartrate, pH 3.0, 25 °C; exposed Trp site.
Substrate in data set [11]: CCn1c(=NN=c2sc3cc(S(=O)(=O)O)ccc3n2CC)sc2cc(S(=O)(=O)O)ccc21
As to the kind of experiment: purified protein. It is filed as biochemical, Phanerodontia chrysosporium. The following applies: 0.1 mM H2O2, 0.1 M tartrate, pH 3.5, 25 °C, high efficiency site (exposed Trp).

Substrate in data set [12]: COc1cccc(OC)c1O
The data set is described as follows: purified protein. In kind it is biochemical, Phanerodontia chrysosporium. The following applies: 0.1 mM H2O2, 0.1 M tartrate, pH 3.0, 25 °C, high efficiency site (exposed Trp).

Substrate in data set [13]: COc1ccc(CO)cc1OC
The data set is described as follows: purified protein. The following applies: 0.1 mM H2O2, 0.1 M tartrate, pH 3.0, 25 °C, exposed Trp site. In kind it is biochemical, Phanerodontia chrysosporium.

As for `CCn1c(=NN=c2sc3cc(S(=O)(=O)O)ccc3n2CC)sc2cc(S(=O)(=O)O)ccc21` [ABTS], the Km in the data set on CaCD [1] is 1280 ± 350 µM; in the data set with CaPo-tris it was 807 ± 104 µM; in the data set with CaPo-bis it was 1390 ± 345 µM; in the data set on ALiP [2] it was 13.7 ± 3.5 µM; with AVP [3], 5.4 ± 0.7 µM.
As to `COc1cccc(OC)c1O` [DMP], the Km in the data set with ALiP [4] stood at 34 ± 5.4 µM; in the data set on AVP [5] it was 5.3 ± 1.1 µM; in the data set on CaPo, 32900 µM; in the data set on CaCD [6] it was 66800 µM.
For `Nc1c(N=Nc2ccc(S(=O)(=O)CCOS(=O)(=O)O)cc2)c(S(=O)(=O)O)cc2cc(S(=O)(=O)O)c(N=Nc3ccc(S(=O)(=O)CCOS(=O)(=O)O)cc3)c(O)c12` [RB5], the Km amounted to 12.6 ± 3.6 µM with ALiP [7] and 4.8 ± 0.8 µM with AVP [8].
`COc1ccc(CO)cc1OC` [VA]: the Km in the data set on AVP [9] turned out to be 299 ± 104 µM; with ALiP [10] it was 773 ± 155 µM.

B1: LiPH8 (Phanerodontia chrysosporium) (protein)
chain: ATCSNGKTVGDASCCAWFDVLDDIQQNLFHGGQCGAEAHESIRLVFHDSIAISPAMEAQGKFGGGGADGSIMIFDDIETAFHPNIGLDEIVKLQKPFVQKHGVTPGDFIAFAGRVALSNCPGAPQMNFFTGRAPATQPAPDGLVPEPFHTVDQIINRVNDAGEFDELELVWMLSAHSVAAVNDVDPTVQGLPFDSTPGIFDSQFFVETQLRGTAFPGSGGNQGEVESPLPGEIRIQSDHTIARDSRTACEWQSFVNNQSKLVDDFQFIFLALTQLGQDPNAMTDCSDVIPQSKPIPGNLPFSFFPAGKTIKDVEQACAETPFPTLTTLPGPETSVQRIPPPPGA
As a reminder, the kcat is the number of substrate molecules converted per active site and unit of time at saturation. By kcat/Km is commonly meant the second-order rate constant that governs catalysis at low substrate concentration. In the case of B1, the Km in the data set “purified protein [11]” stood at 21.3 ± 2.3 µM; in “purified protein [12]”, 4.0 ± 0.07 µM; in the data set “purified protein [13]”, 79.3 ± 18 µM. For the same molecule, the catalytic constant (kcat) was determined as 6.5 ± 0.2 s⁻¹ in “purified protein [11]” and 16.2 ± 0.8 s⁻¹ in “purified protein [13]”. Also, the specificity constant (kcat/Km) in “purified protein [11]” was found to be 300000 ± 25000 M⁻¹ s⁻¹; in the data set “purified protein [13]” it was 205000 ± 4000 M⁻¹ s⁻¹.
